Measured values as given in the supplement of paper PMC10307832.

What was measured:
Test in all cases: relative viability (nuclei count vs DMSO), 5 days (fraction); higher = more cells survive
[1] = compound: C[As](C)SC[C@H](NC(=O)CC[C@H](N)C(=O)O)C(=O)NCC(=O)O [Darinaparsin] + O=C(CCCCCCC(=O)Nc1ccccc1)NO [Vorinostat] (partner 1 µM)
In short: (§1)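 Values are medians from duplicate plates. Each reflects relative viability, defined as the nuclei count of treated wells over that of vehicle wells. Lung cancer cell lines in 1536-well plates were pin-tool dosed one day after seeding with one drug alone or with a fixed anchor-drug dose plus five library-drug doses (not always all listed) in √10 steps, then fixed, stained and imaged at 4× after 5 days.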

[2] = compound: C[As](C)SC[C@H](NC(=O)CC[C@H](N)C(=O)O)C(=O)NCC(=O)O [Darinaparsin] + Nc1ncn([C@H]2C[C@H](O)[C@@H](CO)O2)c(=O)n1 [Decitabine] (partner 2 µM)
In short: as §1

[3] = compound: CC1=C(C=C(C=C1)NC(=O)C2=CC(=CC=C2)C(C)(C)C#N)NC3=CC4=C(C=C3)N=CN(C4=O)C [AZ628] + CC1(C)CCC(c2ccc(Cl)cc2)=C(CN2CCN(c3ccc(C(=O)NS(=O)(=O)c4ccc(N[C@H](CCN5CCOCC5)CSc5ccccc5)c(S(=O)(=O)C(F)(F)F)c4)cc3)CC2)C1 [Navitoclax] (partner 0.5 µM)
In short: as §1

[4] = compound: C[As](C)SC[C@H](NC(=O)CC[C@H](N)C(=O)O)C(=O)NCC(=O)O [Darinaparsin] + NC(=O)Nc1cc(-c2cccc(F)c2)sc1C(=O)N[C@H]1CCCNC1 [AZD7762] (partner 0.2 µM)
In short: as §1

| Cell Line | relative viability ([1]; first compound 0.08 µM) | relative viability ([1]; first compound 0.8 µM) | relative viability ([1]; first compound 2.53 µM) | relative viability ([1]; first compound 8 µM) | relative viability ([2]; first compound 0.08 µM) | relative viability ([2]; first compound 0.8 µM) | relative viability ([2]; first compound 2.53 µM) | relative viability ([2]; first compound 8 µM) | relative viability ([3]; first compound 0.08 µM) | relative viability ([3]; first compound 0.253 µM) | relative viability ([3]; first compound 0.8 µM) | relative viability ([3]; first compound 2.53 µM) | relative viability ([3]; first compound 8 µM) | relative viability ([4]; first compound 0.08 µM) | relative viability ([4]; first compound 0.8 µM) | relative viability ([4]; first compound 8 µM) |
| --- | --- | --- | --- | --- | --- | --- | --- | --- | --- | --- | --- | --- | --- | --- | --- | --- |
| NCI-H1650 | 0.64 | 0.499 | 0.628 | 0.683 | 0.325 | 0.41 | 0.397 | 0.359 | 1.34 | 1.22 | 1.38 | 1.15 | 0.949 | – | – | – |
| SK-LU-1 | 0.742 | 0.784 | 0.591 | 0.702 | 0.637 | 0.587 | 0.495 | 0.759 | 0.502 | 0.878 | 1.06 | 0.886 | 0.902 | – | – | – |
| UMC-11 | 0.339 | 0.314 | 0.384 | 0.308 | 0.563 | 0.574 | 0.636 | 0.677 | 0.311 | 0.378 | 0.334 | 0.313 | 0.418 | – | – | – |
| SW 1573 | 0.837 | 0.754 | 0.653 | 0.738 | 0.564 | 0.468 | 0.61 | 0.555 | 0.905 | 0.746 | 0.851 | 0.902 | 0.436 | – | – | – |
| NCI-H1792 | – | – | – | – | 0.694 | 0.512 | – | 0.588 | 0.682 | 0.619 | 0.545 | 0.591 | 0.44 | 0.697 | 0.624 | 0.797 |
| IA-LM | 0.947 | 1.07 | 1.2 | 0.89 | – | – | – | – | 1.15 | 0.716 | 0.641 | 0.761 | 0.0904 | – | – | – |
